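A five-concentration, 48-hour dose response in 96-well plates underlies each endpoint, interpolated linearly between surrounding concentrations. The concentration for 50% growth inhibition is given as GI50.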 Active and inactive are the calls of the source. No stated cut-off is given here; in the data, active = GI50 up to about 1.1 µM and inactive = higher.
Columns and labels:
Assay in all cases: DTP human tumour cell line panel, 48 h
A498 = tested on: A498
COLO 205 = tested on: COLO 205
HCT-15 = tested on: HCT-15
HL-60 = tested on: HL-60
HOP-92 = tested on: HOP-92
IGROV-1 = tested on: IGROV-1
K562 = tested on: K562
MDA-MB-435 = tested on: MDA-MB-435
MOLT-4 = tested on: MOLT-4
OVCAR-3 = tested on: OVCAR-3
OVCAR-4 = tested on: OVCAR-4
PC-3 = tested on: PC-3
SF-295 = tested on: SF-295
SF-539 = tested on: SF-539
SK-MEL-28 = tested on: SK-MEL-28
SK-OV-3 = tested on: SK-OV-3
SN12C = tested on: SN12C
SR = tested on: SR
SW-620 = tested on: SW-620
U-251 = tested on: U-251

| Compound | GI50 (A498) | GI50 (COLO 205) | GI50 (HCT-15) [µM] | GI50 (HL-60) | GI50 (HOP-92) | GI50 (IGROV-1) | GI50 (K562) | GI50 (MDA-MB-435) | GI50 (MOLT-4) | GI50 (OVCAR-3) | GI50 (OVCAR-4) | GI50 (PC-3) | GI50 (SF-295) | GI50 (SF-539) | GI50 (SK-MEL-28) | GI50 (SK-OV-3) | GI50 (SN12C) | GI50 (SR) | GI50 (SW-620) | GI50 (U-251) |
| --- | --- | --- | --- | --- | --- | --- | --- | --- | --- | --- | --- | --- | --- | --- | --- | --- | --- | --- | --- | --- |
| COc1cc2c(cc1OC)C(=O)N(c1ccc(OCCN3CCCC3)cc1)C2=O | > 100 µM (inactive) | > 100 µM (inactive) | > 100 | > 100 µM (inactive) | > 100 µM (inactive) | > 100 µM (inactive) | > 100 µM (inactive) | > 100 µM (inactive) | > 100 µM (inactive) | > 100 µM (inactive) | > 100 µM (inactive) | > 100 µM (inactive) | > 100 µM (inactive) | > 100 µM (inactive) | > 100 µM (inactive) | > 100 µM (inactive) | > 100 µM (inactive) | > 100 µM (inactive) | > 100 µM (inactive) | > 100 µM (inactive) |
| CN(CCCCN1CCCC1)CCCCN(C)C(=O)Cc1ccc(Cl)c(Cl)c1 | 17.1 µM (inactive) | 7.8 µM (inactive) | 21.1 | 17.5 µM (inactive) | 2.88 µM (inactive) | 18.2 µM (inactive) | 2.91 µM (inactive) | 2.26 µM (inactive) | 4.54 µM (inactive) | 18.2 µM (inactive) | 17.6 µM (inactive) | 16.8 µM (inactive) | 19.5 µM (inactive) | 9.29 µM (inactive) | 2 µM (inactive) | 23.6 µM (inactive) | 19.1 µM (inactive) | 2.59 µM (inactive) | 18.8 µM (inactive) | 13.6 µM (inactive) |
| c1ccc([P+](Cc2ccc(C[P+](c3ccccc3)(c3ccccc3)c3ccccc3)cc2)(c2ccccc2)c2ccccc2)cc1 | > 100 µM (inactive) | 31.2 µM (inactive) | > 100 | 55.1 µM (inactive) | 26.3 µM (inactive) | 20.4 µM (inactive) | 9.66 µM (inactive) | 42.7 µM (inactive) | > 100 µM (inactive) | 27.7 µM (inactive) | 48.1 µM (inactive) | 40.9 µM (inactive) | 35.6 µM (inactive) | 31.2 µM (inactive) | 67.9 µM (inactive) | > 100 µM (inactive) | 67.5 µM (inactive) | > 100 µM (inactive) | 72.4 µM (inactive) | 21.2 µM (inactive) |
| C=CC(C1=CC(=O)C(OC)=CC1=O)c1ccccc1 (stereo not given) [4-METHOXYDALBERGIONE] | > 51.2 µM (inactive) | 18.9 µM (inactive) | 14.3 | 2.38 µM (inactive) | 4.98 µM (inactive) | 16.4 µM (inactive) | 3.33 µM (inactive) | 13.8 µM (inactive) | 2.16 µM (inactive) | 17.2 µM (inactive) | 14.7 µM (inactive) | 9.53 µM (inactive) | 12.2 µM (inactive) | 14.2 µM (inactive) | 15.5 µM (inactive) | 17.3 µM (inactive) | 14.3 µM (inactive) | 3.86 µM (inactive) | 19.5 µM (inactive) | 15.6 µM (inactive) |

Source: ChEMBL document CHEMBL1201862, “PubChem BioAssay data set” (2004)
